CCOc1cc(C=O)ccc1O
solubility (mole fraction)
Settings	273.15 K	278.15 K	283.15 K	288.15 K	293.15 K	298.15 K	303.15 K	308.15 K	313.15 K
in acetone	0.199	0.216	0.237	0.271	0.3	0.33	0.369	0.416	0.459
in ethanol	0.0564	0.0721	0.0911	0.109	0.141	0.183	0.224	0.283	0.34
in isopropanol	0.0336	0.0433	0.0552	0.072	0.0957	0.124	0.166	0.221	0.294
in methanol	0.0867	0.114	0.147	0.181	0.214	0.257	0.307	0.358	0.418

— BigSolDB 2.1
